In data set [1] the test system is patients suffering from poor kidney function. In words: Administration of Treprostinil to humans suffering from kidney malfunction/failure (chronic continuous subcutaneous infusion). The protocol: The target dose is determined by titration in patients for a clinical effect. The medication is delivered by a small pump that is connected to a catheter placed under the skin. In this manner, increasing dosages of Treprostinil are administered to patients by chronic continuous subcutaneous infusion. […] An example of one target dose is 10 ng/kg/min.

Data set [2] concerns human pulmonary arterial smooth muscle cells. The conditions noted are these: cited from earlier work.
In data set [3] the test system is human alveolar macrophages. To be noted: cited from earlier work.
The subject of data set [4] is patients with class III or class IV heart failure. To be noted: cited from earlier work.

`CCCCC[C@H](O)CC[C@@H]1[C@H]2Cc3cccc(OCC(=O)[O-])c3C[C@H]2C[C@H]1O.[Na+]` [Treprostinil]: the urine production entry in data set [1] (at least two patients with poor kidney function, also on dialysis, treatment over the course of several weeks) is “improved urine production”. Also, the common side effects entry in data set [1] (at peak dose, continuous subcutaneous infusion) was “headache and nausea”. For the same compound, in data set [2], the “proliferation of human pulmonary arterial smooth muscle cells” value is on record as “inhibits proliferation”. Also, the “inflammatory cytokine (tumor necrosis factor-α, interleukin-1β, interleukin-6, granulocyte macrophage colony-stimulating factor) secretion and gene expression” value in data set [3] was “inhibits”. Further, the vasodilator effects result in data set [4] is “vasodilator effects”.
